Laboratory results taken from US20230386662A1, “RAPID AND DIRECT IDENTIFICATION AND DETERMINATION OF URINE BACTERIAL SUSCEPTIBILITY TO ANTIBIOTICS” (B. G. NEGEV TECHNOLOGIES AND APPLICATIONS LTD., AT …, priority 2020, published 2023).

Tests used:
Type in all cases: cell-based
E. coli isolates = assay: Susceptibility of E. coli urine isolates to antibiotics by the classical method VITEK2; set-up: key to Bacterial susceptibility category label: sensitive (S); resistant (R); conditions: for R (number of isolates resistant to the antibiotic) / S (number of isolates sensitive to the antibiotic): E. coli isolates from urine of UTI patients, 567 isolates studied
From the text: (§1) The present inventors studied 1005 different bacterial isolates derived directly from urine samples of UTIs patients, as follows:
(§2) These isolates were identified at a species level as well as their known susceptibility to most common used antibiotics, using the classical methods MALDI-TOF and VITEK2, respectively.
The samples where then processed for spectrometric measurements, by purifying the infecting bacteria directly from the urine as described herein above. A subset consisting of ten E. coli isolates was randomly selected, as detailed in table 1.

[1] = test system: Klebsiella pneumonia isolates; assay: Susceptibility of Klebsiella pneumonia urine isolates to antibiotics by the classical method VITEK2; conditions: Klebsiella pneumonia isolates from urine of UTI patients, 220 isolates studied
From the text: as §1, §2
FIGS. 7A-7B present the average second derivative IR spectra of Klebsiella pneumonia, in the 900-1800 cm^−1 region grouped as sensitive of resistant to: Amoxicillin (panel a), Ceftazidime (panel c), Ceftriaxone (panel e) and Cefuroxime (panel g). The ROC curves of the classification of these antibiotics are respectively presented in panels (b), (d), (f) and (h). […] The performances of the RF classifier for the classification between Klebsiella pneumonia isolates sensitive and resistant to the tested antibiotics are summarized in Table 4 similar to E. coli (Table 3).

[2] = test system: Pseudomonas aeruginosa isolates; assay: Susceptibility of Pseudomonas aeruginosa urine isolates to antibiotics by the classical method VITEK2; conditions: Pseudomonas aeruginosa isolates from urine of UTI patients, 121 isolates studied
From the text: as §1
These isolates were identified at a species level as well as their known susceptibility to most common used antibiotics, using the classical methods MALDI-TOF and VITEK2, respectively. […]

Compound | R (number of isolates resistant to the antibiotic) (E. coli isolates) | S (number of isolates sensitive to the antibiotic) (E. coli isolates) | R (number of isolates resistant to the antibiotic) [1] | S (number of isolates sensitive to the antibiotic) [1] | Bacterial susceptibility category label (E. coli isolates; E. coli isolate 306358) | Bacterial susceptibility category label (E. coli isolates; E. coli isolate 306365) | Bacterial susceptibility category label (E. coli isolates; E. coli isolate 306366) | Bacterial susceptibility category label (E. coli isolates; E. coli isolate 306382) | Bacterial susceptibility category label (E. coli isolates; E. coli isolate 307201) | Bacterial susceptibility category label (E. coli isolates; E. coli isolate 307212) | Bacterial susceptibility category label (E. coli isolates; E. coli isolate 307234) | Bacterial susceptibility category label (E. coli isolates; E. coli isolate 307368) | Bacterial susceptibility category label (E. coli isolates; E. coli isolate 307395) | Bacterial susceptibility category label (E. coli isolates; E. coli isolate 307402) | R (number of isolates resistant to the antibiotic) [2] | S (number of isolates sensitive to the antibiotic) [2]
CO/N=C(\C(=O)N[C@@H]1C(=O)N2C(C(=O)OC(C)OC(C)=O)=C(COC(N)=O)CS[C@H]12)c1ccco1 (stereo partly drawn) [Cefuroxime-Axetil] | 190 | 351 | 95 | 112 | – | – | – | – | – | – | – | – | – | – | – | –
CC1(C)S[C@@H]2[C@H](NC(=O)[C@H](N)c3ccccc3)C(=O)N2[C@H]1C(=O)O [Ampicillin] | 384 | 181 | – | – | S | R | R | S | R | S | R | S | R | R | – | –
CC1(C)S[C@@H]2[C@H](NC(=O)[C@H](N)c3ccc(O)cc3)C(=O)N2[C@H]1C(=O)O [Amoxicillin] | 170 | 397 | 61 | 159 | – | – | – | – | – | – | – | – | – | – | – | –
Amoxicillin ClavulA | – | – | – | – | S | – | – | S | S | S | S | S | S | – | – | –
C[C@@H](O)[C@H]1C(=O)N2C(C(=O)O)=C(S[C@@H]3CN[C@H](C(=O)N(C)C)C3)[C@H](C)[C@H]12 [Meropenem] | – | – | – | – | – | – | – | – | – | – | – | – | – | – | 20 | 77
NC[C@H]1O[C@H](O[C@H]2[C@H](O)[C@@H](O[C@H]3O[C@H](CO)[C@@H](O)[C@H](N)[C@H]3O)[C@H](N)C[C@@H]2N)[C@H](N)C[C@@H]1O [Tobramycin] | – | – | – | – | – | – | – | – | – | – | – | – | – | – | 15 | 79
C[C@H]1COc2c(N3CCN(C)CC3)c(F)cc3c(=O)c(C(=O)O)cn1c23 [Levofloxacin] | – | – | – | – | – | – | – | – | – | – | – | – | – | – | 33 | 63
CC1=C(C(=O)O)N2C(=O)[C@@H](NC(=O)[C@H](N)c3ccccc3)[C@H]2SC1 [Cephalexin] | 167 | 372 | 90 | 121 | – | – | – | – | – | – | – | – | – | – | – | –
C[C@@H](O)[C@H]1C(=O)N2C(C(=O)O)=C(SCCN=CN)C[C@H]12 [Imipenem] | – | – | – | – | – | – | – | – | – | – | – | – | – | – | 18 | 72
CCN1CCN(C(=O)N[C@@H](C(=O)N[C@@H]2C(=O)N3[C@@H]2SC(C)(C)[C@@H]3C(=O)O)c2ccccc2)C(=O)C1=O [Piperacillin] | – | – | – | – | – | – | – | – | – | – | – | – | – | – | 23 | 59
Gentamicin | 68 | 498 | 41 | 179 | – | – | – | – | – | – | – | – | – | – | 17 | 80
O=C1CN(/N=C/c2ccc([N+](=O)[O-])o2)C(=O)N1 [Nitrofurantoin] | 47 | 502 | 150 | 62 | – | – | – | – | – | – | – | – | – | – | – | –
CO/N=C(\C(=O)N[C@@H]1C(=O)N2C(C(=O)O)=C(COC(N)=O)CS[C@H]12)c1ccco1 [Cefuroxime] | 196 | 371 | 99 | 121 | S | S | R | S | S | S | S | S | S | S | – | –
CO/N=C(\C(=O)N[C@@H]1C(=O)N2C(C(=O)O)=C(CSc3nc(=O)c(=O)[nH]n3C)CS[C@H]12)c1csc(N)n1 [Ceftriaxone] | 160 | 407 | 87 | 133 | S | S | R | S | S | S | S | S | S | S | – | –
Piperacill-Tazobactam | 58 | 506 | 41 | 179 | – | – | – | – | – | – | – | – | – | – | 10 | 76
Sulfamethoxa-Trimeth | 194 | 371 | 92 | 126 | S | R | S | S | R | R | R | S | R | S | – | –
CC(C)(O/N=C(\C(=O)N[C@@H]1C(=O)N2C(C(=O)[O-])=C(C[n+]3ccccc3)CS[C@H]12)c1csc(N)n1)C(=O)O [Ceftazidime] | 159 | 408 | 91 | 129 | – | – | – | – | – | – | – | – | – | – | 19 | 78
